# Values of other authors, collected in patent US8734826B2 (priority 2005, dated 2014).
# Read-outs that look alike come from different tables or passages of the source.
# What was measured:
# anal sphincter = conditions: in vivo
# anal fissure = conditions: in vivo
# [1] = system: internal anal sphincter smooth muscle
# [2] = system: pre-synaptic cholinergic nerve terminals; conditions: in vivo
# [3] = in vivo
molecule,measurement,setting,value
COc1ccc([C@@H]2Sc3ccccc3N(CCN(C)C)C(=O)[C@@H]2OC(C)=O)cc1 [diltiazem],resting anal pressure,anal sphincter,reduce resting anal pressure
same,resting anal pressure,anal sphincter; po,caused a reduction in resting anal pressure
same,fissure healing,anal fissure,results in fissure healing
O=C(NC1CCN(CCc2c[nH]c3ccccc23)CC1)c1ccccc1 [indoramin],resting anal pressure,anal sphincter; po,reduce resting anal pressure
O=[N+]([O-])O[C@H]1CO[C@H]2[C@@H]1OC[C@H]2O[N+](=O)[O-] [isorbide dinitrate],pain reduction and fissure healing,anal fissure,pain reduction and increased fissure healing
same,relaxation of internal anal sphincter smooth muscle,[1],cause a relaxation of internal anal sphincter smooth muscle
CC(C)(C)NCC(O)c1ccc(O)c(CO)c1 (centres unmarked) [salbutamol],resting anal pressure,anal sphincter,reduce resting anal pressure
Botulinum toxin,duration of clinical weakening of the muscle,[2],3 to 4 months
same,voluntary squeeze pressure,anal sphincter,reduction in voluntary squeeze pressure
same,fissure healing,anal fissure,healing of the fissure
same,pain and fissure healing,anal fissure,reduced pain and promoted fissure healing
same,peri-anal thrombosis,[3],peri-anal thrombosis has been reported in some patients
CC(C[N+](C)(C)C)OC(N)=O (centres unmarked) [bethanecol],resting anal pressure,anal sphincter,reducing resting anal pressure
same,healing of anal fissures,anal fissure,increased healing of anal fissures
O=[N+]([O-])OCC(CO[N+](=O)[O-])O[N+](=O)[O-] [nitroglycerin],pain reduction and fissure healing,anal fissure,pain reduction and increased fissure healing
same,relaxation of internal anal sphincter smooth muscle,[1],cause a relaxation of internal anal sphincter smooth muscle
N=C(N)NCCC[C@H](N)C(=O)O [L-arginine],resting anal pressure,anal sphincter,causes a reduction in resting anal pressure
